The assay concerns nude mice, HT29 intrarenal xenograft, tumor weight T/C. The experiment in a line: NCI In Vivo Anticancer Drug Screen. Data for tumor model HT29;CX-1 Human Adenocarcinoma (MER+) (intrarenal inoculation) in NU/NU Swiss (nude) mice. Particulars: endpoint: mean tumor weight change, higher = larger tumour. In outline:
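Tumor-bearing mice received test compound or vehicle, and tumor size or survival was recorded. Values are the treated-group measurement divided by the vehicle-treated control measurement.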

The mark [1] stands for this setting: dose: 200.0 mg/kg/injection, schedule: Q01DX010 (sc), vehicle: saline with Tween-80.
Where [2] appears, read: dose: 25.0 mg/kg/injection, schedule: Q01DX010 (sc), vehicle: saline.
[3] abbreviates: dose: 200.0 mg/kg/injection, schedule: Q04DX004 (sc), vehicle: saline with Tween-80.
Setting [4] is: dose: 800.0 mg/kg/injection, schedule: Q04DX004 (sc), vehicle: saline with Tween-80.
Setting [5] is: dose: 1600.0 mg/kg/injection, schedule: Q04DX004 (sc), vehicle: saline with Tween-80.
Where [6] appears, read: dose: 400.0 mg/kg/injection, schedule: Q04DX004 (sc), vehicle: saline with Tween-80.
Setting [7] is: dose: 400.0 mg/kg/injection, schedule: Q04DX004 (sc), vehicle: saline.
Setting [8] is: dose: 12.5 mg/kg/injection, schedule: Q01DX010 (sc), vehicle: saline with Tween-80.
Where [9] appears, read: dose: 2.0 mg/kg/injection, schedule: Q01DX010 (sc), vehicle: saline.
Where [10] appears, read: dose: 8.0 mg/kg/injection, schedule: Q01DX010 (sc), vehicle: saline.
[11] abbreviates: dose: 16.0 mg/kg/injection, schedule: Q01DX010 (sc), vehicle: saline.

From PubChem BioAssay AID206 (DTP/NCI, 2004) come the findings set out here.

Each structure is given as a SMILES string. “And” between values parts separate entries of the source, which are not always exact repeats. Identical values can stand only once. Inconclusive results are not listed.

As for `CC(=O)[C@]1(O)Cc2c(O)c3c(c(O)c2[C@@H](OC2CC(N)C(O)C(C)O2)C1)C(=O)c1c(O)cccc1C3=O` (some centres undefined), the T/C runs as follows: (dose: 0.63 mg/kg/injection, schedule: Q04DX004 (sc), vehicle: saline) 50 % of control; (dose: 1.25 mg/kg/injection, schedule: Q04DX004 (sc), vehicle: saline) 68 % of control.

Take `NCCCC(N)(C(=O)O)C(F)F` (centres undefined): the T/C reads like this: (dose: 300.0 mg/kg/injection, schedule: Q04DX004 (sc), vehicle: distilled water + alcohol) 240 % of control; (dose: 600.0 mg/kg/injection, schedule: Q04DX004 (sc), vehicle: distilled water + alcohol) 169 % of control; (dose: 1200.0 mg/kg/injection, schedule: Q04DX004 (sc), vehicle: distilled water + alcohol) 75 % of control.

As to `O=c1[nH]c(=O)n(C2CC(O)C(CO)O2)cc1I` (centres undefined), the T/C under setting [1] was 91 % of control.

With `COc1ccc2cc1Oc1ccc(cc1)C[C@H]1c3cc(c(OC)cc3CCN1C)Oc1c(OC)c(OC)cc3c1[C@H](C2)N(C)CC3`, the T/C (dose: 100.0 mg/kg/injection, schedule: Q01DX010 (sc), vehicle: saline with Tween-80) was 102 % of control; the T/C under setting [1] was 33 % of control; the T/C (dose: 400.0 mg/kg/injection, schedule: Q01DX010 (sc), vehicle: saline with Tween-80) was 28 % of control; the T/C (dose: 800.0 mg/kg/injection, schedule: Q01DX010 (sc), vehicle: saline with Tween-80) is 27 % of control.

Turning to `C[n+]1c(/C=C\C=C\N2CCCCC2)sc2ccccc21`, the T/C is, setting by setting: (dose: 1.5 mg/kg/injection, schedule: Q04DX004 (sc), vehicle: Klucel (hydroxypropylcellulose) (HPC)) 84 % of control; (dose: 3.0 mg/kg/injection, schedule: Q04DX004 (sc), vehicle: Klucel (hydroxypropylcellulose) (HPC)) 41 % of control.

Regarding `C1CN(P2(N3CC3)=NP(N3CC3)(N3CC3)=NP(N3CC3)(N3CC3)=N2)CCO1` (centres undefined), the T/C runs as follows: (dose: 6.25 mg/kg/injection, schedule: Q01DX010 (sc), vehicle: saline) 50 % of control; (dose: 12.5 mg/kg/injection, schedule: Q01DX010 (sc), vehicle: saline) 52 % of control; under setting [2], 27 % of control.

With `Cc1ccc(S(=O)(=O)NC(=O)OC23COCN2COC3)cc1`, the T/C is 84 % of control under setting [3], 153 % of control under setting [4] and 121 % of control under setting [5].

Consider `Cc1nc(N)nc(N)c1-c1ccc(Cl)c(Cl)c1`, for which the T/C runs as follows: (dose: 0.32 mg/kg/injection, schedule: Q01DX010 (sc), vehicle: saline) 46 % of control; (dose: 0.63 mg/kg/injection, schedule: Q01DX010 (sc), vehicle: saline) 75 % of control; (dose: 1.25 mg/kg/injection, schedule: Q01DX010 (sc), vehicle: saline) 100 % of control; (dose: 2.5 mg/kg/injection, schedule: Q01DX010 (sc), vehicle: saline) 68 % of control.

`O=C(C#Cc1ccccc1)c1ccccc1`: the T/C is 71 % of control (dose: 12.5 mg/kg/injection, schedule: Q04DX004 (sc), vehicle: Klucel (hydroxypropylcellulose) (HPC)); 64 % of control (dose: 25.0 mg/kg/injection, schedule: Q04DX004 (sc), vehicle: Klucel (hydroxypropylcellulose) (HPC)); 88 % of control (dose: 50.0 mg/kg/injection, schedule: Q04DX004 (sc), vehicle: Klucel (hydroxypropylcellulose) (HPC)); 76 % of control (dose: 100.0 mg/kg/injection, schedule: Q04DX004 (sc), vehicle: Klucel (hydroxypropylcellulose) (HPC)).

With `O=C1NC(=O)/C(=C/C=C/c2ccccc2)S1`, the T/C by setting is: under setting [3], 76 % of control; under setting [6], 68 % of control; under setting [4], 94 % of control; under setting [5], 83 % of control.

Take `OCCN1CCN(CC/C=C2/c3ccccc3Sc3ccc(C(F)(F)F)cc32)CC1`: the T/C was 80 % of control (dose: 5.0 mg/kg/injection, schedule: Q01DX010 (sc), vehicle: saline); 49 % of control (dose: 10.0 mg/kg/injection, schedule: Q01DX010 (sc), vehicle: saline); 67 % of control (dose: 20.0 mg/kg/injection, schedule: Q01DX010 (sc), vehicle: saline); 42 % of control (dose: 40.0 mg/kg/injection, schedule: Q01DX010 (sc), vehicle: saline).

`CS(C)=O`: the T/C by setting is: (dose: 750.0 mg/kg/injection, schedule: Q01DX010 (sc), vehicle: saline) 36 % of control; (dose: 1500.0 mg/kg/injection, schedule: Q01DX010 (sc), vehicle: saline) 31 % of control; (dose: 3000.0 mg/kg/injection, schedule: Q01DX010 (sc), vehicle: saline) 89 % of control; (dose: 6000.0 mg/kg/injection, schedule: Q01DX010 (sc), vehicle: saline) 75 % of control.

As to `c1csc(C[N+]23CN4CN(CN(C4)C2)C3)c1`, the T/C runs as follows: (dose: 100.0 mg/kg/injection, schedule: Q04DX004 (sc), vehicle: saline) 76 % of control; (dose: 200.0 mg/kg/injection, schedule: Q04DX004 (sc), vehicle: saline) 97 % of control; under setting [7], 61 % of control.

`CCOC(=O)C(CC(C)C)NC(=O)C(Cc1ccc(N(CCCl)CCCl)cc1)NC(C)=O` (centres undefined): the T/C is 66 % of control and 87 % of control under setting [8]; 62 % of control under setting [6]; 32 % of control under setting [4]; 29 % of control (dose: 1200.0 mg/kg/injection, schedule: Q04DX004 (sc), vehicle: saline with Tween-80).

As for `Nc1nc([Se])c2ncn(C3OC(CO)C(O)C3O)c2n1` (centres undefined), the T/C is 98 % of control under setting [9], 242 % of control under setting [10] and 202 % of control under setting [11].

Regarding `C=CC(=O)N1CN(C(=O)C=C)CN(C(=O)C=C)C1`, the T/C is 183 % of control (dose: 6.25 mg/kg/injection, schedule: Q01DX010 (sc), vehicle: saline with Tween-80) and 45 % of control under setting [8].

As to `NC(=O)CC(N)C(=O)O` (centres undefined), the T/C was 151 % of control under setting [7]; 119 % of control (dose: 800.0 mg/kg/injection, schedule: Q04DX004 (sc), vehicle: saline); 90 % of control (dose: 3200.0 mg/kg/injection, schedule: Q04DX004 (sc), vehicle: saline).

On to `O=NN(CCCl)C(=O)NC1[C@H](O)CCC[C@@H]1O` (some centres undefined), for which the T/C (dose: 10.0 mg/kg/injection, schedule: Q04DX004 (sc), vehicle: saline) is 90 % of control.

On to `COc1ccc([I+]c2cccc(Cl)c2)cc1Cl`, for which the T/C runs as follows: (dose: 37.5 mg/kg/injection, schedule: Q04DX004 (sc), vehicle: saline with Tween-80) 67 % of control; (dose: 75.0 mg/kg/injection, schedule: Q04DX004 (sc), vehicle: saline with Tween-80) 48 % of control; (dose: 150.0 mg/kg/injection, schedule: Q04DX004 (sc), vehicle: saline with Tween-80) 58 % of control; (dose: 300.0 mg/kg/injection, schedule: Q04DX004 (sc), vehicle: saline with Tween-80) 39 % of control; (dose: 600.0 mg/kg/injection, schedule: Q04DX004 (sc), vehicle: saline with Tween-80) 64 % of control.

In the case of `CCN(CC)CCOC(=O)Cc1cccc2c(=O)cc(-c3ccccc3)oc12`, the T/C by setting is: (dose: 50.0 mg/kg/injection, schedule: Q04DX004 (sc), vehicle: saline with Tween-80) 70 % of control; (dose: 100.0 mg/kg/injection, schedule: Q04DX004 (sc), vehicle: saline with Tween-80) 104 % of control; under setting [3], 102 % of control.

With `NC1=NCN(C2OC(CO)C(O)C2O)C(=O)N1` (centres undefined), the T/C is 70 % of control under setting [2]; 31 % of control (dose: 50.0 mg/kg/injection, schedule: Q01DX010 (sc), vehicle: saline); 38 % of control (dose: 100.0 mg/kg/injection, schedule: Q01DX010 (sc), vehicle: saline).

As for `Cc1c(N)nc(C(CC(N)=O)NCC(N)C(N)=O)nc1C(=O)NC(C(=O)NC(C)C(O)C(C)C(=O)NC(C(=O)NCCc1nc(-c2nc(C(=O)NCCCNC(C)c3ccccc3)cs2)cs1)C(C)O)C(OC1OC(CO)C(O)C(O)C1OC1OC(CO)C(O)C(OC(N)=O)C1O)c1cnc[nH]1` (centres undefined), the T/C was 64 % of control under setting [9]; 65 % of control (dose: 4.0 mg/kg/injection, schedule: Q01DX010 (sc), vehicle: saline); 76 % of control under setting [10]; 65 % of control under setting [11].
